Experimental data published in patent US6011058A, “Seco-cholestane derivatives and methods of making the same” (Georgia Tech Research Corporation, priority 1998, dated 2000).
Converted amounts (≈) assume the structure as drawn. “Also recorded” adds a separate entry of the source. Read-outs that look alike come from different tables or passages of the source.

How the values were obtained:
[1] = target: T1, glutathione S-transferase (GST) fusion protein containing the full length sequence for human cdc25A (Homo sapiens, UniProt P30304); test: Inhibition of CDC25A phosphatase (fluorescein diphosphate substrate); format: biochemical; details: for IC50: 10 mM dithiothreitol, fluorescein diphosphate substrate, read-out: Approximate IC50 (concentration yielding 50% inhibition of cdc25A) (converted); for relative potency against CDC25A, vs the double bond unsaturated compounds in the series: compared with double bond unsaturated compound in this series
T1 construct: made in house; host or cells: Escherichia coli
T1 sequence (P30304 1-524): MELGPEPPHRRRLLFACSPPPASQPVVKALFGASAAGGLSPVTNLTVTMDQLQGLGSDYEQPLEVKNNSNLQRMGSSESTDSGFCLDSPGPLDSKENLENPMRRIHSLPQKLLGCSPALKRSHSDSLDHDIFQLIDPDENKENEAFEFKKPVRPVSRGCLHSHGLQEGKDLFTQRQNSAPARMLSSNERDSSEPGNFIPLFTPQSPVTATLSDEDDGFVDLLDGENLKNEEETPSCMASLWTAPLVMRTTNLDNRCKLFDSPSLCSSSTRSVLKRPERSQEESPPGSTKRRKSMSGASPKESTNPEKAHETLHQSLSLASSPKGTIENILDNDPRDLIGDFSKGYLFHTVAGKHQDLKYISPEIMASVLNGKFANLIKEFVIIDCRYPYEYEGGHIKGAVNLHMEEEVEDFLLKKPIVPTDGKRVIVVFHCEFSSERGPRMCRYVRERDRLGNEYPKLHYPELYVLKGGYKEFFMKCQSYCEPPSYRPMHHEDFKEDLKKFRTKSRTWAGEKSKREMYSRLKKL
From the text: Rice, R. L. et al., A targeted Library of Small-Molecule, Tyrosine, and Dual-Specificity Phosphatase Inhibitors Derived from a Rational Core Design and Random Side Chain Variation, Biochemistry, 1997, 36, 15965-15974. Briefly, the target enzyme for the assay was a glutathione S-transferase (GST) fusion protein containing the full length sequence for human cdc25A. The enzyme was expressed in Escherichia coli and purified by affinity chromatography over glutathione-agarose. Enzyme activity was measured under linear reaction conditions with fluorescein diphosphate as the substrate. Reactions were performed in the presence of 10 mM dithiothreitol to eliminate oxidant-type inhibitors from scoring as hits in this assay.

[2] = tested on: HT-29 human colon cancer cells; test: Inhibition of HT-29 colon carcinoma cell growth, soft agarose colony-forming assay; format: cell-based; details: HT-29, 168 h, continuous drug exposure over 7 days, read-out: IC50, proliferation of HT-29 colon cancer cells
Protocol: (§1) HT-29 human colon cancer cells and A549 human lung adenocarcinoma cells were purchased from the American Tissue Type Collection (Rockville, Md.). The cell were maintained in Dulbecco's modified Eagle's media (DMEM) containing 10% fetal bovine serum and harvested with 0.05% trypsin and 0.5 mM EDTA before becoming confluent.
Compounds 6 and 8 prepared as discussed in the preceding examples were also evaluated for potency as inhibitors of colon cancer cell lines (HT-29). Inhibition of HT-29 colon carcinoma cell growth by compounds 6 and 8 was measured in the soft agarose colony-forming assay with continuous drug exposure over 7 days as previously described. Alley M. C. et al., Activation and inactivation of cancer chemotherapeutic agents by rat heptocytes cocultured with human tumor cell lines, Cancer Res 44:549 (1984). Briefly, soft-agarose culture was performed in 35-mm culture dishes contained a base layer consisting of 0.5 ml of standard culture medium with 0.5% agarose. […] Cell lines forming a sufficient number of detectable colonies were analyzed following 7 days of incubation. Viable colonies were stained using metabolizable tetrazolium salt, and analyzed as described previously. […]

[3] = tested on: A549 human lung adenocarcinoma cells; test: Clonogenic assay, inhibition of growth of lung adenocarcinoma (A549) cells; format: cell-based
Protocol: as §1
Compound 6 prepared as discussed in the preceding examples were also evaluated for potency as inhibitors of the growth of lung adenocarcinoma cell lines. The effect of compound 6 was assessed with a clonogenic assay. In brief, A549 cells in log-phase growth were harvested, resuspended in fresh growth media and plated in triplicate in 60 mm dishes at cell concentrations estimated to yield 20-100 colonies per dish following treatment. Four hours after plating, cells were either exposed to compound 6 for one day followed by a wash and culture in fresh medium for 11 days (dotted line), or continuously exposed to this compound for 12 days (solid line). Cells were fixed and stained with Coomassie Blue at the end of the 12th day. Colonies with greater than 50 cells were scored.

3-actoxy-5, 6-seco-5-oxo-pregnen-6-oic acid [reference compound]
inhibitory activity against CDC25A phosphatase ([1]; negative control): no inhibitory activity; also recorded: lost its activity

CC(C)CCC[C@@H](C)[C@H]1CC[C@H]2[C@@H]3CC(=O)O[C@](C)(CC/C=C\C#N)[C@H]3CC[C@]12C [Compound 6]
IC50 [1]: 14.5 µM | IC50 [2]: 5 µg/mL (≈ 12.1 µM) | IC50 ([3]; A549, 288 h, 12-day continuous exposure, read-out: concentration reducing number of A549 colonies per dish 50%): 7 µM | IC50 ([3]; A549, one day exposure, wash, then fresh medium for 11 days, read-out: concentration giving 50% reduction of the tumor cell colony number per dish): 37 µM

CC(C)CCC[C@@H](C)[C@H]1CC[C@H]2[C@@H]3CC(=O)O[C@@](C)(CC/C=C\C#N)[C@H]3CC[C@]12C [Compound 7]
IC50 [1]: > 121 µM | relative activity against CDC25A, vs 10R isomer compound 6 ([1]; 10S vs 10R isomer, compound 6): much less active

C=C(CC/C=C\C#N)[C@H]1CC[C@]2(C)[C@@H]([C@H](C)CCCC(C)C)CC[C@H]2[C@@H]1CC(=O)O [Compound 8]
IC50 [1]: 10.6 µM | IC50 [2]: 4.8 µg/mL (≈ 11.6 µM)

C/C(=C/C/C=C\C#N)[C@H]1CC[C@]2(C)[C@@H]([C@H](C)CCCC(C)C)CC[C@H]2[C@@H]1CC(=O)O [Compound 9]
IC50 [1]: > 24.2 µM

C/C(=C\C/C=C\C#N)[C@H]1CC[C@]2(C)[C@@H]([C@H](C)CCCC(C)C)CC[C@H]2[C@@H]1CC(=O)O [Compound 10]
IC50 [1]: 24.2 µM

C=C(CCCCC#N)[C@H]1CC[C@]2(C)[C@@H]([C@H](C)CCCC(C)C)CC[C@H]2[C@@H]1CC(=O)O [Compound 13]
IC50 [1]: 2.17 µM | relative potency against CDC25A, vs the double bond unsaturated compounds in the series [1]: much more potent

CC(C)CCC[C@@H](C)[C@H]1CC[C@H]2[C@@H]3CC(=O)O[C@](C)(CCCCC#N)[C@H]3CC[C@]12C [Compound 15]
IC50 [1]: 2.17 µM | relative potency against CDC25A, vs the double bond unsaturated compounds in the series [1]: much more potent
